Data as given in PubChem BioAssay AID222 (DTP/NCI, 2004).
Where “and” joins values, the source holds several entries; their conditions need not be identical. Identical values can stand only once. Toxic doses and inconclusive results are not listed.

Test system: C57BL/6 mice, intracerebral ependymoblastoma, median survival T/C
Assay: NCI In Vivo Anticancer Drug Screen. Data for tumor model Ependymoblastoma (intracerebral) in C57BL/6 mice
Conditions: endpoint: median survival time, higher = longer survival
Method: The antitumor activity of compounds was measured in mice bearing transplantable tumors. Survival or tumor size were measured and the results are expressed as the measurement made in the treated group (T) divided by the measurement made in the vehicle treated control group (C). The tumor model used in this assay is Ependymoblastoma (intracerebral) in C57BL/6 mice

In the case of `OC(C1CO1)C(O)C1CO1` (stereo unspecified), the T/C (dose: 0.12 mg/kg/injection, schedule: Q03HX024 (ip), vehicle: saline) is reported as 108 % of control, the T/C (dose: 0.25 mg/kg/injection, schedule: Q01DX001 (ip), vehicle: saline) is reported as 102 % of control and the T/C (dose: 0.25 mg/kg/injection, schedule: Q01DX005 (ip), vehicle: saline) is reported as 112 % of control. The T/C (dose: 0.25 mg/kg/injection, schedule: Q01DX005 (oral), vehicle: saline) was 111 % of control, the T/C (dose: 0.25 mg/kg/injection, schedule: Q01DX009 (ip), vehicle: saline) was 101 % of control and the T/C (dose: 0.25 mg/kg/injection, schedule: Q03HX008 (ip), vehicle: saline) was 110 % of control. For the same compound, the T/C (dose: 0.25 mg/kg/injection, schedule: Q03HX016 (ip), vehicle: saline) was 103 % of control, the T/C (dose: 0.25 mg/kg/injection, schedule: Q03HX024 (ip), vehicle: saline) was 99 % of control and the T/C (dose: 0.5 mg/kg/injection, schedule: Q01DX001 (ip), vehicle: saline) was 112 % of control. The T/C (dose: 0.5 mg/kg/injection, schedule: Q01DX001 (oral), vehicle: saline) was 101 % of control, the T/C (dose: 0.5 mg/kg/injection, schedule: Q01DX005 (ip), vehicle: clinical formulation) was 104 % of control and the T/C (dose: 0.5 mg/kg/injection, schedule: Q01DX005 (oral), vehicle: saline) was 110 % of control. The T/C (dose: 0.5 mg/kg/injection, schedule: Q01DX009 (ip), vehicle: saline) was 108 % of control, the T/C (dose: 0.5 mg/kg/injection, schedule: Q03HX008 (ip), vehicle: saline) was 123 % of control and the T/C (dose: 0.5 mg/kg/injection, schedule: Q03HX016 (ip), vehicle: saline) was 107 % of control. For the same compound, the T/C (dose: 0.5 mg/kg/injection, schedule: Q03HX024 (ip), vehicle: saline) was 98 % of control, the T/C (dose: 0.5 mg/kg/injection, schedule: Q## X006 (ip), vehicle: clinical formulation) was 107 % of control and the T/C (dose: 1.0 mg/kg/injection, schedule: Q01DX001 (ip), vehicle: saline) was 95 % of control and 107 % of control. The T/C (dose: 1.0 mg/kg/injection, schedule: Q01DX001 (oral), vehicle: saline) was 108 % of control, the T/C (dose: 1.0 mg/kg/injection, schedule: Q01DX005 (ip), vehicle: clinical formulation) was 116 % of control and the T/C (dose: 1.0 mg/kg/injection, schedule: Q01DX005 (oral), vehicle: saline) was 106 % of control. The T/C (dose: 1.0 mg/kg/injection, schedule: Q01DX009 (ip), vehicle: saline) was 109 % of control, the T/C (dose: 1.0 mg/kg/injection, schedule: Q03HX016 (ip), vehicle: saline) was 113 % of control and the T/C (dose: 1.0 mg/kg/injection, schedule: Q03HX024 (ip), vehicle: saline) was 94 % of control. The T/C (dose: 1.0 mg/kg/injection, schedule: Q04DX003 (ip), vehicle: saline) was 100 % of control, the T/C (dose: 1.0 mg/kg/injection, schedule: Q08DX002 (ip), vehicle: saline) was 108 % of control and the T/C (dose: 1.0 mg/kg/injection, schedule: Q## X006 (ip), vehicle: clinical formulation) was 108 % of control. The T/C (dose: 1.0 mg/kg/injection, schedule: Q#A X002 (ip), vehicle: clinical formulation) was 104 % of control, the T/C (dose: 1.25 mg/kg/injection, schedule: Q01DX005 (ip), vehicle: saline) was 365 % of control and the T/C (dose: 2.0 mg/kg/injection, schedule: Q01DX001 (ip), vehicle: clinical formulation) was 91 % of control and 96 % of control and 107 % of control. For the same compound, the T/C (dose: 2.0 mg/kg/injection, schedule: Q01DX001 (ip), vehicle: saline) was 94 % of control and 100 % of control and 113 % of control, the T/C (dose: 2.0 mg/kg/injection, schedule: Q01DX001 (oral), vehicle: saline) was 108 % of control and the T/C (dose: 2.0 mg/kg/injection, schedule: Q01DX005 (ip), vehicle: clinical formulation) was 115 % of control. The T/C (dose: 2.0 mg/kg/injection, schedule: Q01DX005 (oral), vehicle: clinical formulation) was 106 % of control, the T/C (dose: 2.0 mg/kg/injection, schedule: Q01DX005 (oral), vehicle: saline) was 118 % of control and the T/C (dose: 2.0 mg/kg/injection, schedule: Q01DX009 (ip), vehicle: saline) was 113 % of control. The T/C (dose: 2.0 mg/kg/injection, schedule: Q03HX016 (ip), vehicle: saline) was 118 % of control, the T/C (dose: 2.0 mg/kg/injection, schedule: Q03HX024 (ip), vehicle: saline) was 105 % of control and the T/C (dose: 2.0 mg/kg/injection, schedule: Q04DX003 (ip), vehicle: saline) was 105 % of control. For the same compound, the T/C (dose: 2.0 mg/kg/injection, schedule: Q08DX002 (ip), vehicle: saline) was 102 % of control, the T/C (dose: 2.0 mg/kg/injection, schedule: Q## X006 (ip), vehicle: clinical formulation) was 109 % of control and the T/C (dose: 2.0 mg/kg/injection, schedule: Q#A X002 (ip), vehicle: clinical formulation) was 106 % of control. For the same compound, the T/C (dose: 2.5 mg/kg/injection, schedule: Q01DX005 (oral), vehicle: saline) was 365 % of control, the T/C (dose: 3.0 mg/kg/injection, schedule: Q01DX005 (ip), vehicle: saline) was 119 % of control and 301 % of control and the T/C (dose: 4.0 mg/kg/injection, schedule: Q01DX001 (ip), vehicle: clinical formulation) was 102 % of control and 105 % of control and 108 % of control. For the same compound, the T/C (dose: 4.0 mg/kg/injection, schedule: Q01DX001 (ip), vehicle: saline) was 94 % of control and 120 % of control, the T/C (dose: 4.0 mg/kg/injection, schedule: Q01DX001 (oral), vehicle: saline) was 96 % of control and the T/C (dose: 4.0 mg/kg/injection, schedule: Q01DX009 (ip), vehicle: saline) was 103 % of control. The T/C (dose: 4.0 mg/kg/injection, schedule: Q03HX008 (ip), vehicle: saline) was 97 % of control, the T/C (dose: 4.0 mg/kg/injection, schedule: Q03HX016 (ip), vehicle: saline) was 93 % of control and the T/C (dose: 4.0 mg/kg/injection, schedule: Q03HX024 (ip), vehicle: saline) was 94 % of control. The T/C (dose: 4.0 mg/kg/injection, schedule: Q04DX003 (ip), vehicle: saline) was 95 % of control, the T/C (dose: 4.0 mg/kg/injection, schedule: Q08DX002 (ip), vehicle: saline) was 102 % of control and the T/C (dose: 4.0 mg/kg/injection, schedule: Q#A X002 (ip), vehicle: clinical formulation) was 117 % of control. For the same compound, the T/C (dose: 5.0 mg/kg/injection, schedule: Q01DX005 (oral), vehicle: saline) was 365 % of control, the T/C (dose: 8.0 mg/kg/injection, schedule: Q01DX001 (ip), vehicle: clinical formulation) was 89 % of control and 106 % of control and the T/C (dose: 8.0 mg/kg/injection, schedule: Q01DX001 (ip), vehicle: saline) was 94 % of control and 108 % of control and 112 % of control. The T/C (dose: 8.0 mg/kg/injection, schedule: Q01DX001 (oral), vehicle: clinical formulation) was 91 % of control and 102 % of control and 115 % of control, the T/C (dose: 8.0 mg/kg/injection, schedule: Q01DX001 (oral), vehicle: saline) was 108 % of control and the T/C (dose: 8.0 mg/kg/injection, schedule: Q01DX009 (ip), vehicle: saline) was 107 % of control. For the same compound, the T/C (dose: 8.0 mg/kg/injection, schedule: Q03HX008 (ip), vehicle: saline) was 95 % of control, the T/C (dose: 8.0 mg/kg/injection, schedule: Q03HX016 (ip), vehicle: saline) was 94 % of control and the T/C (dose: 8.0 mg/kg/injection, schedule: Q04DX003 (ip), vehicle: saline) was 122 % of control. For the same compound, the T/C (dose: 8.0 mg/kg/injection, schedule: Q08DX002 (ip), vehicle: saline) was 104 % of control, the T/C (dose: 8.0 mg/kg/injection, schedule: Q#A X002 (ip), vehicle: clinical formulation) was 100 % of control and the T/C (dose: 16.0 mg/kg/injection, schedule: Q01DX001 (ip), vehicle: clinical formulation) was 98 % of control. The T/C (dose: 16.0 mg/kg/injection, schedule: Q01DX001 (ip), vehicle: saline) was 98 % of control and 101 % of control, the T/C (dose: 16.0 mg/kg/injection, schedule: Q01DX001 (oral), vehicle: clinical formulation) was 104 % of control and 108 % of control and the T/C (dose: 16.0 mg/kg/injection, schedule: Q01DX001 (oral), vehicle: saline) was 101 % of control. The T/C (dose: 16.0 mg/kg/injection, schedule: Q04DX003 (ip), vehicle: saline) was 99 % of control, the T/C (dose: 16.0 mg/kg/injection, schedule: Q08DX002 (ip), vehicle: saline) was 104 % of control and the T/C (dose: 16.0 mg/kg/injection, schedule: Q#A X002 (ip), vehicle: clinical formulation) was 102 % of control. The T/C (dose: 32.0 mg/kg/injection, schedule: Q01DX001 (ip), vehicle: clinical formulation) was 100 % of control, the T/C (dose: 32.0 mg/kg/injection, schedule: Q01DX001 (ip), vehicle: saline) was 90 % of control and 100 % of control and the T/C (dose: 32.0 mg/kg/injection, schedule: Q01DX001 (oral), vehicle: clinical formulation) was 100 % of control and 114 % of control. For the same compound, the T/C (dose: 32.0 mg/kg/injection, schedule: Q01DX001 (oral), vehicle: saline) was 103 % of control, the T/C (dose: 32.0 mg/kg/injection, schedule: Q04DX003 (ip), vehicle: saline) was 92 % of control and the T/C (dose: 32.0 mg/kg/injection, schedule: Q08DX002 (ip), vehicle: saline) was 99 % of control. For the same compound, the T/C (dose: 64.0 mg/kg/injection, schedule: Q01DX001 (ip), vehicle: saline) was 97 % of control and 102 % of control, the T/C (dose: 64.0 mg/kg/injection, schedule: Q01DX001 (oral), vehicle: clinical formulation) was 100 % of control and the T/C (dose: 128.0 mg/kg/injection, schedule: Q01DX001 (oral), vehicle: clinical formulation) was 100 % of control.
